Results as given in patent publication US20220144823A1, “PYRAZOLOPYRIDINE DERIVATIVES AS INHIBITORS OF PASK” (Galapagos NV, priority 2019, published 2022).

How the values were obtained:
[1] = molecular target: T1, human PASK (Homo sapiens, UniProt Q96RG2); assay: 33P radioactive kinase assay; format: biochemical; conditions: 33P radioactive PASK kinase assay, 10 μM ATP, ZIPtide 1 μM
T1 construct: purchased ThermoFisher Scientific PR7013A
Summary of the method: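 Human PASK phosphorylation of ZIPtide peptide was measured by incorporation from [^33P]-ATP plus unlabelled ATP, with a 10-point, 1/5 dilution series from 0.2 or 2 mM DMSO stocks and 1% DMSO final. Reactions were stopped with phosphoric acid, filter-harvested, washed and scintillation-counted. Percentage inhibition gave dose–response curves and averaged IC50s.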

[2] = molecular target: T1, human PASK; assay: ADP-Glo kinase assay; format: biochemical; conditions: ADPGlo PASK kinase assay, 25 μM ATP, ZIPtide 25 μM
Summary of the method: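 Human recombinant PASK phosphorylating ZIPtide peptide with ATP, 120 min at RT; compounds in 10-point 1/5 dilution series, 1% DMSO final. ADP formed measured by ADP-Glo luminescence after ATP depletion; percent inhibition fitted to dose-response curves for averaged IC50.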

[3] = molecular target: T2, autophosphorylation of PASK at position Thr307 in Hek293 cells overexpressing PASK (Homo sapiens, UniProt Q96RG2); assay: PASK autophosphorylation ELISA assay; format: cell-based; conditions: 24 h, ELISA readout
T2 construct: expressed in transfected cells; host or cells: Hek293
T2 sequence (Q96RG2 with tags, fused parts or gaps): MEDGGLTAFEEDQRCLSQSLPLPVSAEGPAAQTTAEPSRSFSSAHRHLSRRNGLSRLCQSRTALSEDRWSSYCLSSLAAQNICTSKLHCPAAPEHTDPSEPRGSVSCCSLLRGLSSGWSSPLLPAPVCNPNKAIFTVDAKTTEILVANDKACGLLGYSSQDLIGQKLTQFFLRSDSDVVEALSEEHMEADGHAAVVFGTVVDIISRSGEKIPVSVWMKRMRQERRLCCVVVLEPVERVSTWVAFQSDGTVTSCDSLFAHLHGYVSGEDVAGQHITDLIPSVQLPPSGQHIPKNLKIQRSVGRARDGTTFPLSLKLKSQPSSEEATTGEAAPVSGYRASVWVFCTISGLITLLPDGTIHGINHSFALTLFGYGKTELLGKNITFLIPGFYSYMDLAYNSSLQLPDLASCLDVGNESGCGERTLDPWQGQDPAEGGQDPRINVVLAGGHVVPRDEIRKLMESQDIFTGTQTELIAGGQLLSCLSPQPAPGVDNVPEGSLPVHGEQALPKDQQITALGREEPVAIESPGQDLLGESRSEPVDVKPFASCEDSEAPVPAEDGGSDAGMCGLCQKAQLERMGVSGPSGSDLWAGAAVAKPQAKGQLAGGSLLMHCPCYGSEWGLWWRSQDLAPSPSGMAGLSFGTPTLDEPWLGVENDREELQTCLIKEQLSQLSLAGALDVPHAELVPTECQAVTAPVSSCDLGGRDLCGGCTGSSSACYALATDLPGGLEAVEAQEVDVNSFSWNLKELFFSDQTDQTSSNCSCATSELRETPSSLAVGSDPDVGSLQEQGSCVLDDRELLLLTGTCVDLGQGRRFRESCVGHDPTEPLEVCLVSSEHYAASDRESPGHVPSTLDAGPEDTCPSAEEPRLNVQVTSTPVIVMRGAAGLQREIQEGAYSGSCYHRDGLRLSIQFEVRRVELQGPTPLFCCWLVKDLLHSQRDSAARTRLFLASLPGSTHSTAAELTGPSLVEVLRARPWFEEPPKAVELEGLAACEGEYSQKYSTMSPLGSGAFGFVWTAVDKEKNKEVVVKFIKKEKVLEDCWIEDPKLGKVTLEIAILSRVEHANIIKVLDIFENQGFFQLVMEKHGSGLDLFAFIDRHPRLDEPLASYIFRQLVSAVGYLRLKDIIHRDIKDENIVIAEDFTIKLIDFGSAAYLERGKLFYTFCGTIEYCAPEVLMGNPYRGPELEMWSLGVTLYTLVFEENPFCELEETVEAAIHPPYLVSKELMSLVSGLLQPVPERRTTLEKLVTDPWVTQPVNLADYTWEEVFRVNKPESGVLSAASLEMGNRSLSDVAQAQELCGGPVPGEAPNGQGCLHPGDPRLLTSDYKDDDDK
Procedure: The compounds of the invention are profiled in a cellular assay to determine their capacity to reduce the autophosphorylation levels of PASK at position Thr307 in Hek293 cells overexpressing PASK, using an ELISA-based readout.
At day 1, a 96-well cell assay plate is coated with poly-D-lysine (50 μL/well of a 0.05 mg/mL solution in PBS) and incubated for 1 h at 37° C. The plate is subsequently washed once with PBS and stored dry at RT until further use. Hek293 cells are transfected with a pcDNA3.1-PASK(FL,WT)-FLAG construct (SEQ ID1) and seeded in culture medium (DMEM+10% FBS) in a poly-D-lysine coated 96-well plate (0.3 μL JetPEI DNA transfection reagent (Polyplus-transfection SA, Cat #101-40), 10 ng construct and 90 ng pBluescript, 60000 cells per well). […] The cell plate is incubated overnight at 37° C., 5% CO2.
At day 2, the medium of the assay plate is removed and 100 μL of fresh medium (DMEM+10% FBS) is added to the plate. Cell plate is further incubated overnight at 37° C., 5% CO2. This to allow further expression of PASK protein.
At day 3, the medium is removed and replaced with 100 μL of serum free medium (DMEM). Test compound is added to the plate (8 points concentration curve with 1/3 dilution steps starting from 30 μM final concentration in 0.3% DMSO final). In the positive and negative control wells of the plate, 0.3% DMSO final is added. For each tested condition, duplicates are made for ELISA readout. Cell plate is incubated 24 h at 37° C., 5% CO2.
At day 4, the medium is removed and the plate is washed once with 100 μL/well PBS. Cells are lysed by adding 50 μL/well western blot lysis buffer (20 mM Tris pH 7.5, 150 mM NaCl and 1% Triton) to the plate. The assay plate is stored at −80° C. and thawed to perform the ELISA readout.
At day 1, the ELISA plate is coated with the mouse anti-FLAG antibody (2 μg/mL diluted in PBS, 100 μL/well) and incubated overnight at 4° C.
At day 2, the plate is washed once with 150 μL/well PBS. 200 μL/well blocking buffer (PBS with 3% BSA) is added and the plate is incubated for 4 h at RT. The plate is washed with 150 μL/well high salt washing buffer (20 mM Na2HPO4, 0.5% Triton X-100, 0.1% SDS, 0.1% BSA and 1 M NaCl) followed by one wash with 150 μL/well low salt washing buffer (20 mM Na2HPO4, 0.5% Triton X-100, 0.1% SDS, 0.1% BSA and 150 mM NaCl). Meanwhile, the cell lysate plate is thawed, two wells of the same condition are pooled (2×50 μL) and added to the ELISA plate. The ELISA plate is incubated overnight at 4° C.
At day 3, the ELISA plate is washed twice with 150 μL/well high salt washing buffer followed by two washes with low salt washing buffer. 100 μL/well detection antibody for pPASK (phospho-Akt substrate (RXXS*/T*) (110B7E) rabbit antibody (Cell Signaling Technology, Inc., Cat #9614) 2 μg/mL diluted in PBS with 3% BSA and 1×Halt™ protease and phosphatase inhibitor cocktail (Thermo Fisher Scientific, Inc., Cat #78447)) is added and incubated for 2 h at RT. The plate is washed twice with high and low salt wash buffer (150 μL/well) and 100 μL/well of an HRP antibody (swine anti-rabbit HRP antibody (Agilent Technologies, Inc., Cat #P039901) diluted 1/2000 in PBS with 3% BSA and 1×Halt™ protease and phosphatase inhibitor cocktail) is added to the plate, followed by an incubation for 1 h at RT in the dark (plate sealed with aluminum seal). The plate is washed twice with high and low salt wash buffer (150 μL/well) and 100 μL/well of SuperSignal™ ELISA Pico Chemiluminescent Substrate (Thermo Fisher Scientific, Inc., Cat #37070)(premix part 1 and part 2, 1/1) is added. The plate is incubated for 4 min at RT before measuring luminescence on the Luminoskan™ Ascent (Thermo Fisher Scientific, Inc.) (PMT default voltage; 100 ms integration time). […]

T1 sequence (Q96RG2 whole entry): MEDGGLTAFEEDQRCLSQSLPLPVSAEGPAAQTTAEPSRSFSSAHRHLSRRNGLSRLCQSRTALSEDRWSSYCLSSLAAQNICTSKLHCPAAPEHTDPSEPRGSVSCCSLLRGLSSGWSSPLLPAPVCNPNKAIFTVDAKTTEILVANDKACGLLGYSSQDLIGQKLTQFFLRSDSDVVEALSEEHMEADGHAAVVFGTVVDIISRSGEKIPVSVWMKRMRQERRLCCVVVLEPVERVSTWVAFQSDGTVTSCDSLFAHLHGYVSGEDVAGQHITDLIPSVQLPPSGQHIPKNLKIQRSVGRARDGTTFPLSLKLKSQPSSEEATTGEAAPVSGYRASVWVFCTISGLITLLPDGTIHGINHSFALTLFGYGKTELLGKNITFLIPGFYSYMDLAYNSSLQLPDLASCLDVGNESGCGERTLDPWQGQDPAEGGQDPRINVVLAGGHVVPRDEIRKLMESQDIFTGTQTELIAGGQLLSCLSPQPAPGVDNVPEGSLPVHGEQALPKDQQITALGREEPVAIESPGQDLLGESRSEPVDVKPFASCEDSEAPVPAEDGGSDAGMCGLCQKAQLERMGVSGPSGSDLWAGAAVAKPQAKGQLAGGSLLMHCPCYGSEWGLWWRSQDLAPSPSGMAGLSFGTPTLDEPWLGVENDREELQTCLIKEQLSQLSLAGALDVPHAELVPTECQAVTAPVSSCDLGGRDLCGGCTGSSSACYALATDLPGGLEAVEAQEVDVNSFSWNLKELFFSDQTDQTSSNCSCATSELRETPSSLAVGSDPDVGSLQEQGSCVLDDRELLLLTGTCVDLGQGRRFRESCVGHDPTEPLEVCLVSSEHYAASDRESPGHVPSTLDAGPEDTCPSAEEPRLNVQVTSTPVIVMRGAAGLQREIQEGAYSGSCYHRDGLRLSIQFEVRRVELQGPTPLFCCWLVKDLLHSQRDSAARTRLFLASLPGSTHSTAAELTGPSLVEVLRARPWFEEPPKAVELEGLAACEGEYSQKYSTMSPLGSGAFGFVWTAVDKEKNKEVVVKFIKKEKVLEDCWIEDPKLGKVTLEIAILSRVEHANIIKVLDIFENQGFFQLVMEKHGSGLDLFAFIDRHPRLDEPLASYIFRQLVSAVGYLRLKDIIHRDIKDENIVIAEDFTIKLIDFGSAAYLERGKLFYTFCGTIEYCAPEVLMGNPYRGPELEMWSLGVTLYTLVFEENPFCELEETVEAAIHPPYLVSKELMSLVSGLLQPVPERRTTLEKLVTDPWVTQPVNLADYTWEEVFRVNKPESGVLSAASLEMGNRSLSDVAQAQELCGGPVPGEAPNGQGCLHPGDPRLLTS

| Structure (SMILES) | IC50 [1] [nM] | IC50 [2] [nM] | IC50 [3] [nM] |
| --- | --- | --- | --- |
| Cc1nn(C)c(C)c1-c1cnn2ccc(-c3cc(C(=O)O)co3)cc12 [Cpd 2, 5-[3-(1,3,5-trimethylpyrazol-4-yl)pyrazolo[1,5-a]pyridin-5-yl]furan-3-carboxylic acid] | 0.01 to 10 | 0.01 to 10 | 500 to 1000 |
| COc1nc(-c2ccn3ncc(-c4c(C)nn(C)c4C)c3c2)sc1C(=O)O [Cpd 8, 4-methoxy-2-[3-(1,3,5 trimethylpyrazol-4-yl)pyrazolo[1,5-a]pyridin-5-yl]thiazole-5-carboxylic acid] | 0.01 to 10 | 0.01 to 10 | > 5000 |

More lines, now with the values ahead:

| IC50 [1] [nM] | IC50 [2] [nM] | IC50 [3] [nM] | Structure (SMILES) |
| --- | --- | --- | --- |
| 0.01 to 10 | 0.01 to 10 | 500 to 1000 | CCn1nc(C)c(-c2cnn3ccc(-c4cc(C(=O)O)co4)cc23)c1C [Cpd 28, 5-[3-(1-ethyl-3,5-dimethyl-pyrazol-4-yl)pyrazolo[1,5-a]pyridin-5-yl]furan-3-carboxylic acid] |
| 0.01 to 10 | 0.01 to 10 | 0.1 to 500 | Cc1nn(C(C)C)c(C)c1-c1cnn2ccc(-c3nc(C4CC4)c(C(=O)O)s3)cc12 [Cpd 39, 4-cyclopropyl-2-[3-(1-isopropyl-3,5-dimethyl-pyrazol-4-yl)pyrazolo[1,5-a]pyridin-5-yl]thiazole-5-carboxylic acid] |
| 0.01 to 10 | 0.01 to 10 | 1000 to 5000 | Cc1nn(CC(F)(F)F)c(C)c1-c1cnn2ccc(-c3cc(C(=O)O)co3)cc12 [Cpd 40, 5-[3-[3,5-dimethyl-1-(2,2,2-trifluoroethyl)pyrazol-4-yl]pyrazolo[1,5-a]pyridin-5-yl]furan-3-carboxylic acid] |
